Results published in patent US4378358A, “Benzothiazinopyrazoles having pharmacological activity” (Mediolanum Farmaceutici s.r.l., priority 1980, dated 1983).
Where two headings read alike, the source gives them in different places.

Key:
[1] = test system: Rat; experiment: in vivo; assay type: in vivo
[2] = test system: rats; experiment: in vivo; settings: 5 days, rats, per os
Description: (§1) Five days subacute toxicity in rats per os
(§2) Animals: 5 female rats for each group, average body weight: 150g.

[3] = in vivo; settings: rat, in vivo, po
Description: as §1, §2

[4] = test system: Rat; settings: per os, literature value (footnotes a, b); cited from earlier work
[5] = test system: pyresis; experiment: Antipyretic activity according to Burn et al.; assay type: in vivo, rat; settings: for Reduction of the pyresis at hour 4: female rats
Description: Animals: 6 female rats for each group, average body weight 200 g.

[6] = test system: rats; assay type: in vivo, rat; settings: for Gastrolesive effect, relative potency to piroxicam / Average number of lesions per animal / Gastrolesive effect, relative potency to naproxen: male rats, single oral administration; for Average number of lesions per animal: 100 mg/kg (maximum tested dose)
Description: The test was modified by increasing the fast period to 70 hours and giving the total dose of substance in one single oral administration.
Animals: 10 male rats for each group, average body weight: 150g.

[7] = test system: phenylquinone writhes; experiment: Analgesic activity according to Hendershot et al., phenylquinone writhes, modified; assay type: in vivo, mouse
Description: Analgesic activity according to HENDERSHOT et al., Jour. Pharm.
The test was modified by numbering the writhes only along the time interval from 5 to 15 minutes since the injection of phenylquinone. The injection was made 2 hours after the oral administration of the compound to be tested.
Animals: 8 female mice for each group, average body weight: 25g

[8] = test system: carrageenin paw edema; experiment: Antiinflammatory activity according to Winter et al., carrageenin paw edema, modified; assay type: in vivo, rat
Description: Antiinflammatory activity according to WINTER et al., Proc. Soc. Exp. Biol. Med.; 111, 544; 1962.
The test was modified in that the injection of carrageenin and the administration of the compound by gastric gavage were carried out simultaneously and the paw edema was measured at the plethysmograph after 4 hours.
Animals: 6 female rats for each group, average body weight: 150g

[9] = test system: Mouse; settings: per os
[10] = in vivo; assay type: in vivo; settings: rat, in vivo, po; read-out: LD 50 (Litchfield and Wilcoxon)
[11] = in vivo; settings: mouse, po
[12] = 50 mg/g (so in the source) per os
[13] = 100 mg/g (so in the source) per os
[14] = Mus musculus, 50 mg/kg oral, 2 h before phenylquinone, 5-15 min, female mice
[15] = Mus musculus, 100 mg/kg oral, 2 h before phenylquinone, 5-15 min, female mice
[16] = Rattus norvegicus, po, 4 h, 50 mg/kg per os, female rats, read-out: % inhibition of the edema after 4 hours
[17] = Rattus norvegicus, po, 4 h, 100 mg/kg per os, female rats, read-out: % inhibition of the edema after 4 hours
[18] = 350 mg/kg/day, read-out: % of dead animals

Structure (SMILES)	LD 50, relative ratio to piroxicam ([1]; per os)	Subacute toxicity, relative ratio to piroxicam [2]	Gastrolesive effect, relative potency to piroxicam [6]	LD 50, relative ratio to piroxicam [9]	LD50 [10]	Subacute toxicity, relative ratio to naproxen [2]	LD50 [11]	Antipyretic relative potency to naproxen [5, 12]	Antipyretic relative potency to piroxicam [5, 12]	Reduction of the pyresis at hour 4 [5, 12]	Antipyretic relative potency to naproxen [5, 13]	Antipyretic relative potency to piroxicam [5, 13]	Reduction of the pyresis at hour 4 [5, 13]	Average number of lesions per animal [6]	Gastrolesive effect, relative potency to naproxen [6]	Analgesic relative potency to naproxen ([7]; 50 mg/kg oral)	Analgesic relative potency to piroxicam ([7]; 50 mg/kg oral)	Analgesic relative potency to naproxen ([7]; 100 mg/kg oral)	Analgesic relative potency to piroxicam ([7]; 100 mg/kg oral)	inhibition in vivo at 50 mg/kg [7, 14]	further results
CN1C(C(=O)Nc2ccccn2)=C(O)c2ccccc2S1(=O)=O [Piroxicam, piroxicam, reference compound]	1	1	1	1																	mortality at 120 h ([3]; 20 mg/kg/day): 0%; mortality ([3]; 30 mg/kg/day): 6%; mortality at 120 h ([3]; 30 mg/kg/day): 40%; LD 50 (Litchfield and Wilcoxon) [4]: 270 mg/kg; Reduction of the pyresis at hour 4 ([5]; 10 mg/g (so in the source) per os): 0.89 °C; Gastric ulcerogenicity (in words) ([6]; rat, in vivo): considerable gastrolesive power; inhibition in vivo at 10 mg/kg ([7]; Mus musculus, 10 mg/kg oral, 2 h before phenylquinone, 5-15 min, female mice): 46%; inhibition in vivo at 10 mg/kg ([8]; Rattus norvegicus, po, 4 h, 10 mg/kg per os, female rats, read-out: % inhibition of the edema after 4 hours): 45%
CN1c2c(C(=O)NCCCN3CCOCC3)nn(-c3ccccc3)c2-c2ccccc2S1(=O)=O [Compound I-3]		10	100	6.1	1080 mg/kg	4	2200 mg/kg	0.7	0.9	0.77 °C	1.0	1.2	1.08 °C	0	> 20	1.0	0.7	1.8	1.3	33%	LD 50, relative ratio to piroxicam ([1]; in vivo): 4.0; mortality at 120 h ([3]; 200 mg/kg/day, read-out: % of dead animals): 0%; inhibition in vivo at 100 mg/kg [7, 15]: 60%; Antiinflammatory relative potency to naproxen ([8]; 50 mg/kg per os): 0.4; Antiinflammatory relative potency to piroxicam ([8]; 50 mg/kg per os): 0.2; Antiinflammatory relative potency to naproxen ([8]; 100 mg/kg per os): 0.7; Antiinflammatory relative potency to piroxicam ([8]; 100 mg/kg per os): 0.3; inhibition in vivo at 50 mg/kg [8, 16]: 9%; inhibition in vivo at 100 mg/kg [8, 17]: 15%; LD 50, relative ratio to naproxen [9]: 1.8
CN(C)CCCNC(=O)c1nn(-c2cccc(F)c2)c2c1N(C)S(=O)(=O)c1ccccc1-2 [Compound I-21]	8.4	17	100	4.2	2260 mg/kg	7	1520 mg/kg	0.4	0.5	0.47 °C	0.7	0.8	0.75 °C	0	> 20	1.4	1.0	2.0	1.4	47%	LD 50, relative ratio to naproxen ([1]; per os): 4.2; mortality at 120 h [3, 18]: 0%; inhibition in vivo at 100 mg/kg [7, 15]: 65%; Antiinflammatory relative potency to naproxen ([8]; 50 mg/kg per os): 0.6; Antiinflammatory relative potency to piroxicam ([8]; 50 mg/kg per os): 0.3; Antiinflammatory relative potency to naproxen ([8]; 100 mg/kg per os): 0.9; Antiinflammatory relative potency to piroxicam ([8]; 100 mg/kg per os): 0.4; inhibition in vivo at 50 mg/kg [8, 16]: 12%; inhibition in vivo at 100 mg/kg [8, 17]: 19%; LD 50, relative ratio to naproxen [9]: 1.2
CCN(CC)CCNC(=O)c1nn(-c2cccc(F)c2)c2c1N(C)S(=O)(=O)c1ccccc1-2 [Compound I-20]	8.2	17	100	4.4	2220 mg/kg	7	1600 mg/kg	0.4	0.5	0.45 °C	0.7	0.8	0.75 °C	0	> 20	1.3	1.0	2.2	1.6	44%	LD 50, relative ratio to naproxen ([1]; per os): 4.1; mortality at 120 h [3, 18]: 0%; inhibition in vivo at 100 mg/kg [7, 15]: 72%; Antiinflammatory relative potency to naproxen ([8]; 50 mg/kg per os): 0.7; Antiinflammatory relative potency to piroxicam ([8]; 50 mg/kg per os): 0.3; Antiinflammatory relative potency to naproxen ([8]; 100 mg/kg per os): 1.0; Antiinflammatory relative potency to piroxicam ([8]; 100 mg/kg per os): 0.5; inhibition in vivo at 50 mg/kg [8, 16]: 15%; inhibition in vivo at 100 mg/kg [8, 17]: 21%; LD 50, relative ratio to naproxen [9]: 1.3
